These results are taken from US8436035B2, “Organic compounds” (Novartis AG, priority 2006, dated 2013).

What is called IC50 is the concentration that gives 50% inhibition.

Assay [1] addresses T1, aldosterone synthase (CYP11B2) (Homo sapiens, UniProt P19099).
T1 construct: host or cells: NCI-H295R
T1 sequence (P19099 25-503): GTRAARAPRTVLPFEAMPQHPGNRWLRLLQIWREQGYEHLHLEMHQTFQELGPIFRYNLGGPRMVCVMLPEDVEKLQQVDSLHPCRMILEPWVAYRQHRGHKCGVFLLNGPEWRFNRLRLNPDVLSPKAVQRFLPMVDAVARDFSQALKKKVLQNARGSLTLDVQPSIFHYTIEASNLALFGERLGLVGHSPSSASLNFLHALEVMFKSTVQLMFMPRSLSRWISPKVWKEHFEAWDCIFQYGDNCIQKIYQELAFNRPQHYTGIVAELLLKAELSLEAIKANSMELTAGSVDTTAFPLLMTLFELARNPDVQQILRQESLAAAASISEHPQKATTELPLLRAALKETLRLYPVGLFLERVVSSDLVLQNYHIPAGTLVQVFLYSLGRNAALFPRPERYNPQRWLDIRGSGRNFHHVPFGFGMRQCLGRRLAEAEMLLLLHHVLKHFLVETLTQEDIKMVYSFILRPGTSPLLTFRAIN
The experiment in a line: in vitro aldosterone synthase inhibition, aldosterone production in Ang II-stimulated NCI-H295R cells. Format: cell-based. The note with it: read-out: AS IC50. The source says:
In particular, the aldosterone synthase inhibitory activities in vitro can be determined by the following assay.
Human adrenocortical carcinoma NCI-H295R cell line is obtained from American Type Culture Collection (Manassas, Va.). Insulin/transferrin/selenium (ITS)-A supplement (100×), DMEM/F-12, antibiotic/antimycotic (100×), and fetal calf serum (FCS) are purchased from Gibco (Grand Island, N.Y.). Anti-mouse PVT scintillation proximity assay (SPA) beads and NBS 96-well plates are obtained from Amersham (Piscataway, N.J.) and Corning (Acton, Mass.), respectively. Solid black 96-well flat bottom plates were purchased from Costar (Corning, N.Y.). Aldosterone and angiotensin (Ang II) are purchased from Sigma (St. Louis, Mo.). D-[1,2,6,7-^3H(N)]aldosterone was acquired from PerkinElmer (Boston, Mass.). Nu-serum was a product of BD Biosciences (Franklin Lakes, N.J.).
For in vitro measurement of aldosterone activity, human adrenocortical carcinoma NCI-H295R cells are seeded in NBS 96-well plates at a density of 25,000 cells/well in 100 μl of a growth medium containing DMEM/F12 supplemented with 10% FCS, 2.5% Nu-serum, 1 μg ITS/ml, and 1× antibiotic/antimycotic. The medium is changed after culturing for 3 days at 37° C. under an atmosphere of 5% CO2/95% air. On the following day, cells are rinsed with 100 μl of DMEM/F12 and incubated with 100 μl of treatment medium containing 1 μM Ang II and a compound at different concentrations in quadruplicate wells at 37° C. for 24 hr. At the end of incubation, 50 μl of medium is withdrawn from each well for measurement of aldosterone production by an RIA using mouse anti-aldosterone monoclonal antibodies.
Measurement of aldosterone activity can also be performed using a 96-well plate format. Each test sample is incubated with 0.02 μCi of D-[1,2,6,7-^3H(N)]aldosterone and 0.3 μg of anti-aldosterone antibody in phosphate-buffered saline (PBS) containing 0.1% Triton X-100, 0.1% bovine serum albumin, and 12% glycerol in a total volume of 200 μl at room temperature for 1 hr. Anti-mouse PVT SPA beads (50 μl) are then added to each well and incubated overnight at room temperature prior to counting in a Microbeta plate counter. The amount of aldosterone in each sample is calculated by comparing with a standard curve generated using known quantities of the hormone.

In the next assay the target is T2, CYP11B1 (Homo sapiens, UniProt P15538).
T2 construct: Thus, the NCI-H295R cells have Cyp11 B1 (steroid 11 p-hydroxylase); host or cells: NCI-H295R
T2 sequence (P15538 25-503): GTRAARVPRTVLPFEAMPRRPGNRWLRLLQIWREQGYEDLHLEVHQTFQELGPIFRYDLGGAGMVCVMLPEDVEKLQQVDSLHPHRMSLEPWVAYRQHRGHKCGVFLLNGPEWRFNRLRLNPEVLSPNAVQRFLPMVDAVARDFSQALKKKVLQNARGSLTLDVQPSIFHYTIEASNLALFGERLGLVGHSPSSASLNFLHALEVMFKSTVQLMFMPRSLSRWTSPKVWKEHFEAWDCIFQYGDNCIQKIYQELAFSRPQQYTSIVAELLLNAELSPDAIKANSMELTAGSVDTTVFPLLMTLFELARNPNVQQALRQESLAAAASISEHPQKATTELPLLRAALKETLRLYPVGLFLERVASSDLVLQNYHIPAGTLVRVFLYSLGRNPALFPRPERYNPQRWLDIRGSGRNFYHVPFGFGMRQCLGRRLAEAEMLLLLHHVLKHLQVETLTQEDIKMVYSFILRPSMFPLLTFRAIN
In words: in vitro CYP11B1 inhibition, steroid release from NCI-H295R cells. The assay is classed as cell-based. The note with it: for inhibition at 0.1 µM: NCI-H295R, read-out: 11B1 % I @ 100 nM. The text has this:
The in vitro inhibitory activities for CYP11B1 can be determined by the following assay.
The cell line NCI-H295R was originally isolated from an adrenocortical carcinoma and has been characterized in the literature through the stimulable secretion of steroid hormones and the presence of the enzymes essential for steroidogenesis. Thus, the NCI-H295R cells have Cyp11 B1 (steroid 11 p-hydroxylase). The cells show the physiological property of zonally undifferentiated human foetal adrenocortical cells which, however, have the capacity to produce the steroid hormones which are formed in the three, phenotypically distinguishable zones in the adult adrenal cortex.
The NCI-H295R cells (American Type Culture Collection, ATCC, Rockville, Md., USA) are grown in Dulbeoco's Modified Eagle'Ham F-12 Medium (DME/F12), which has been I supplemented with Ulroser SF Serum (Soprachem, Cergy-Saint-Christophe, France), insulin, transferrin, selenite (I-T-S, Becton Dickinson Biosciences, Franklin lakes, NJ, USA) and antibiotics in 75 cm^2 cell culture vessels at 37° C. and in a 95% air-5% carbon dioxide atmosphere. The cells are subsequently transferred for colony formation into a 24-well incubation vessel. They are cultivated there in DME/F12 medium, which is now supplemented with 0.1% bovine serum instead of Ultroser SF for 24 hours. The experiment is initiated by cultivating the cells in DME/F12 medium which is supplemented with 0.1% bovine serum albumin and test compound, in the presence or absence of cell stimulants, for 72 hours. The test substance is added in a concentration range from 0.2 nanomolar to […]. Cell stimulants which can be used are angiotensin 11 ([…] or 100 nanomolar), potassium ions (16 millimolar), forskolin (10 micromolar) or a combination of two stimulants.
The excretion of aldosterone, cortisol, corticosterone and estradiol/estrone into the culture medium can be detected and quantified by commercially available, specific monoclonal antibodies in radioimmunoassays in accordance with the manufacturer's instructions.
Inhibition of the release of certain steroids can be used as a measure of the respective enzyme inhibition by the added test compounds. The dose-dependent inhibition of enzymic activity by a compound is calculated by means of an inhibition plot which is characterized by an IC50.
The IC50 values for active test compounds are ascertained by a […] in order to construct inhibition plots without data weighting. The inhibition plot is calculated by fting a 4-parameter logistic function to the raw data points using the least squares method. The equation of the 4-parameter logistic function is calculated as follows: Y=(d−a)/((1+(x/c)b))+a I where: a=minimum data level b=gradient I c=ICED, d=maximum data level x=inhibitor concentration.

As for `CC1(C)CSc2ccccc2C1n1ccnc1` (centres unmarked) [Compound 14, 1-(3,3-Dimethyl-thiochroman-4-yl)-1H-imidazole], the IC50 in assay [1] was 0.125 µM. Besides, the inhibition at 0.1 µM on CYP11B1 is 92%.
In the same order, the values of `Cc1noc(-c2cncn2C2c3ccccc3CC2(C)C)n1` (centres unmarked) [Compound 21, 5-[3-(2,2-Dimethyl-indan-1-yl)-3H-imidazol-4-yl]-3-methyl-[1,2,4]oxadiazole] are 0.129 µM and 98%.
In the same order, the values of `CCc1cncn1C1CC(C)(C)c2ccccc21` (centres unmarked) [Compound 22, 1-(3,3-Dimethyl-indan-1-yl)-5-ethyl-1H-imidazole] are 0.194 µM and 100%.
As to `CC1(C)C(n2cncc2CO)c2ccccc2S1(=O)=O` (centres unmarked) [Compound 24, [3-(2,2-Dimethyl-1,1-dioxo-2,3-dihydro-1H-1lambda*6*-benzo[b]thiophen-3-yl)-3H-imidazol-4-yl]-methanol], the IC50 in assay [1] is 0.194 µM. At CYP11B1, the inhibition at 0.1 µM amounted to 93%.
For `COC(=O)c1cncn1C1c2ccccc2OC1(C)C` (centres unmarked) [Compound 25, 3-(2,2-Dimethyl-2,3-dihydro-benzofuran-3-yl)-3H-imidazole-4-carboxylic acid methyl ester] the same measures were 0.046 µM and 96%.
For `CC(C)OC(=O)c1cncn1C1CCCCc2ccccc21` (centres unmarked) [Compound 26, 3-(6,7,8,9-Tetrahydro-5H-benzocyclohepten-5-yl)-3H-imidazole-4-carboxylic acid isopropyl ester] the same measures were 0.005 µM and 99%.
With “spiro[cyclopentane-1,2′-[3′-(7′-methyl-chroman-4′-yl)-3′H-imidazole-4′-carboxylic acid methyl ester]] [Compound 17]”, the IC50 in assay [1] came to 0.175 µM. Further, the “11B1 % I @ 100 nM” value on CYP11B1 (100 nM) is listed as 100%.
